Assay results taken from patent EP2739628B1.
Read-outs that look alike come from different tables or passages of the source.

Details: rcm bond

Structure (SMILES): CCOC(=O)C1C/C=C/C[C@H](NC(=O)OC(C)(C)C)c2cc(ccn2)-c2ccc(NC(=O)OC)cc2N1 (stereo partly shown)
- ring closure, yield of all isomers (from C=CCC(Nc1cc(NC(=O)OC)ccc1-c1ccnc([C@H](CC=C)NC(=O)OC(C)(C)C)c1)C(=O)OCC, Grubbs II): 47%

Structure (SMILES): COC(=O)Nc1ccc2c(c1)N[C@@H](C(=O)OC)CC=CC[C@H](NC(=O)OC(C)(C)C)c1nc-2cn1COCC[Si](C)(C)C
- ring closure, yield of all isomers (from C=CC[C@H](NC(=O)OC(C)(C)C)c1nc(-c2ccc(NC(=O)OC)cc2N[C@H](CC=C)C(=O)OC)cn1COCC[Si](C)(C)C, Grubbs II, DCE, 40.0 mM, 120.0 °C, 0.33 h): 23%

Structure (SMILES): COC(=O)Nc1ccc2c(c1)NC(=O)C/C=C/C[C@H](NC(=O)OC(C)(C)C)c1cc-2ccn1
- ring closure, yield of all isomers (from C=CCC(=O)Nc1cc(NC(=O)OC)ccc1-c1ccnc([C@H](CC=C)NC(=O)OC(C)(C)C)c1, Grubbs II, DCM, 3.99 mM, 45.0 °C, 19.0 h): 26%

Structure (SMILES): COC(=O)Nc1ccc2c(c1)NC(=O)[C@H](C)C=CC[C@H](NC(=O)OC(C)(C)C)c1nc-2cn1COCC[Si](C)(C)C
- ring closure, yield of all isomers (from C=CC[C@H](NC(=O)OC(C)(C)C)c1nc(-c2ccc(NC(=O)OC)cc2NC(=O)[C@H](C)C=C)cn1COCC[Si](C)(C)C, Grubbs 2nd generation catalyst (with pTsOH monohydrate), dichloromethane, 9.73 mM, 40.0 °C, 21.5 h): 41%
